Source: patent publication EP4613273A1, “TREATMENT OF BONE LOSS” (priority 2024, dated 2025)
Structures can show the parent of a compound that is named as a salt. Where two headings read alike, the source gives them in different places.

Experiments:
Format in all cases: in vivo
[1] = Plasma pharmacokinetic of MIV-701 after single and repeated oral administration of MIV-701 besylate salt in healthy beagle dogs; conditions: for Cmax at 312 h / Tmax at 312 h / AUC(0-inf) at 312 h / AUC(0-t) at 312 h / half-life at 312 h / Cmax at 0 h / Tmax at 0 h / AUC(0-inf) / AUC(0-t) / half-life: dog; for AUC(0-inf) at 312 h / AUC(0-inf): read-out: AUC(0-infini) (converted); for AUC(0-t) at 312 h / AUC(0-t): read-out: AUC(0-tfinal) (converted); for half-life at 312 h / half-life: read-out: T1/2 elimination (converted)
Method: (§1) Compound Ib besylate salt (referred to as MIV-701 besylate salt) was administered once daily for 14 days to 3 healthy beagle dogs at three different doses: 1 mg/kg, 10 mg/kg and 100 mg/kg.
(§2) The doses were consecutively administered for 14 days with a >5-day washout period between two dose levels.
(§3) Each treatment period can be resumed as follows: • J0 (T+24h): first Compound Ib besylate salt administration, withdrawal of blood samples for pharmacokinetic and plasma CTX-1 assessment (pre-dose and 0.5h, 1h, 2h, 4h, 8h and 24h after drug administration), pre-dose blood samples for hematology and clinical biochemistry (baseline values for safety assessment). • J1 to J12: pre-dose blood samples • J13: last Compound Ib besylate salt administration, withdrawal of plasma samples for pharmacokinetic and plasma CTX-1 assessment (pre-dose and 0.5h, 1h, 2h, 4h, 8h and 24h after drug administration), pre-dose sampling for hematology and clinical biochemistry (baseline values for safety assessment). • J15-J≥19: washout period.
After centrifugation of blood samples plasma aliquots were stored at -20°C. After thawing on ice, 30 µL of plasma were transferred into 1.5 ml microtube containing 270 µL acetonitrile. Microtubes were then vigorously stirred and then centrifuged (12000 rpm, 10 min, 4°C) and the supernatant was transferred in Matrix tube for LC-MS/MS analysis. Calibration curve (9 points, 3 to 30 000 nM) was obtained by spiking plasma samples from naive dogs with appropriate quantities of Compound Ib.
Equipment: LC-MS/MS Acquity I Class-Wevo TQD (Waters®): - Acquity I Class ∘ Column: Waters® Acquity BEH C8, 50*2.1mm, 1.7 µm (40°C) ∘ Mobile phase: • ▪ A: Ammonium Formate 5mM, pH=3.8 • ▪ B: Ammonimuformate 5 mM in CH3CN 5% aqueous, pH=3.8 ∘ Injection volume: 1 µL ∘ Speed: 600 µL/min ∘ Gradient: […]
- Xevo TQD ∘ Source temperature: 150°C ∘ Desolvatation temperature: 600°C ∘ Cone gaz speed: 50L/h ∘ Desolvatation gaz speed: 1200L/h - Analytes MS characteristics
Terminal elimination half-life (t1/2) was calculated according to the following formula: T1/2 elimination = ln(2)/kel [formula] kel= slope of ln(C)=f(temps) calculated on the last points of the curves (elimination phase)/ MIV-701 exposure (Area Under the Curve; AUCt) was calculated according to trapezoidal method according to the following formula: AUCt−>inf = [C]t /kel [formula]

CTX-1 = assay: Plasma CTX-1 (bone resorption marker) in healthy beagle dogs
Method: as §1, §2, §3

[2] = tested on: dogs with alveolar bone loss induced by spontaneously developed periodontal disease; assay: Alveolar bone loss parameters by CBCT-scan and X-ray radiography in dogs with periodontal disease; conditions: CTX-1 responders, Day-90 vs Day-0
Method: The present study was performed on 10 Beagle dogs suffering from alveolar bone loss induced by spontaneously developed periodontal disease. All dogs were treated with MIV-701 besylate salt for minimum 30 day and maximum 90 days, depending on the tolerance at intermediate visits. The product is administrated to the dog by its owner at home, once a day with a meal.
There were two treatment groups: • Group A (5 dogs) with a dose of 25 mg/kg. • Group B (5 dogs) with a dose of 50 mg/kg.
Dental imaging was performed at visit V2 (Day 0) and visit V5 (90t 3 days).
Each time a full mouth CBCT-scan was performed together with dental radiographs of selected teeth for the study. The results of these exams were recorded in IMAGING FORM by the Investigator.
Full mouth cone-beam computed tomography (NewTom, 5G XL, Bologna, Italy) was performed at visit V2 (Day 0) and visit V5 (Day 90t 3 days).
The exam was performed only in dogs recruited in Polish site. It was performed under general anesthesia of Investigator's choice and aim at alveolar bone loss measurement.
Scans were analyzed with the use of NNT viewer, software provided by the manufacturer (version: 10.1; QR SRL, Verona, Italy). At both times, the volumetric assessment of dentition was set up for the same high-resolution mode (10 × 10 cm with 0.15 mm layers). Both readings were made in the same orientations of axes and locations measuring alveolar bone loss with the use of maximum magnification (Gawro, Strøm et Nemec 2022). To evaluate the effect of the treatment on the alveolar bone loss, the following three measurements (De Faria Vasconcelos et al. 2012) were performed on the selected teeth for the study: • 1. The height of the alveolar crest (AC), measured from the cementoenamel junction (CEJ) to the upper rim of AC (Figure 12A). • 2. The depth of the defect, measured from the CEJ to the bottom of the defect (Figure 12B). • 3. The width of the defect, measured from the highest point of the AC to the dental root adjacent to the defect (Figure 12C).
Dental radiography was performed at visit V2 (Day 0) and visit V5 (Day 90t 3 days).
To evaluate the effect of the treatment on the alveolar bone loss, the following three measurements (De Faria Vasconcelos et al. 2012) were performed on the selected teeth for the study: • 1. The heigh of the alveolar crest (AC), measured from the cementoenamel junction (CEJ) to the upper rim of AC (Figure 13A). • 2. The depth of the defect, measured from the CEJ to the bottom of the defect (Figure 13B). • 3. The width of the defect, measured from the highest point of the AC to the dental root adjacent to the defect (Figure 13C).
These measurements were performed using digital ruler of the imaging software or external program (i.e., Image J) and recorded in the IMAGING FORM.

[3] = plasma MIV-701, oral 1 mg/kg once daily, Day 13 (repeated)
[4] = plasma MIV-701, oral 1 mg/kg, Day 0 (single)
[5] = plasma MIV-701, oral 10 mg/kg once daily, Day 13 (repeated)
[6] = plasma MIV-701, oral 10 mg/kg, Day 0 (single)
[7] = plasma MIV-701, oral 100 mg/kg once daily, Day 13 (repeated)
[8] = plasma MIV-701, oral 100 mg/kg, Day 0 (single)

## CC(C)C[C@H](NC(=O)c1ccc(-c2csc(N3CCN(C)CC3)n2)cc1)C(=O)N1C[C@H](F)[C@H]2OCC(O)(O)[C@H]21 [MIV-701 besylate salt, N-[(S)-1-((3aS,6S,6aS)-6-Fluoro-S-oxo-hexahydro-furo[3,2-b]pyrrole-4-carbony)-3-methyl-butyl]-4-[2-(4-methyl-piperazin-1-yl)-thiazol-4-yl]-benzamide benzenesulphonate]
[1]; 14-day repeated oral administration, three doses
  plasma accumulation of MIV-701 (Cmax, AUCs D13 vs D0): did not show plasma accumulation
[1]; [3]
  Cmax at 312 h: 6.6 nM
  Tmax at 312 h: 2 h
  AUC(0-inf) at 312 h: 0.083 µM·h
  AUC(0-t) at 312 h: 0.036 µM·h
  half-life at 312 h: 8.6 h
  Kel (2-8h): -0.080 h⁻¹
[1]; [4]
  Cmax at 0 h: 20 nM
  Tmax at 0 h: 0.5 h
  AUC(0-inf): 0.0488 µM·h
  AUC(0-t): 0.0429 µM·h
  half-life: 2.9 h
  Kel (2-8h): -0.236 h⁻¹
[1]; [5]
  Cmax at 312 h: 130 nM
  Tmax at 312 h: 4 h
  AUC(0-inf) at 312 h: 1.91 µM·h
  AUC(0-t) at 312 h: 1.84 µM·h
  half-life at 312 h: 4.9 h
  Kel (4-24h): -0.142 h⁻¹
[1]; [6]
  Cmax at 0 h: 139 nM
  Tmax at 0 h: 1 h
  AUC(0-inf): 1.38 µM·h
  AUC(0-t): 1.35 µM·h
  half-life: 4.1 h
  Kel (8-24h): -0.167 h⁻¹
[1]; [7]
  Cmax at 312 h: 1620 nM
  Tmax at 312 h: 1 h
  AUC(0-inf) at 312 h: 21.4 µM·h
  AUC(0-t) at 312 h: 20.7 µM·h
  half-life at 312 h: 4.8 h
  Kel (4-24h): -0.144 h⁻¹
[1]; [8]
  Cmax at 0 h: 1280 nM
  Tmax at 0 h: 8 h
  AUC(0-inf): 19.9 µM·h
  AUC(0-t): 19.4 µM·h
  half-life: 4 h
  Kel (8-24h): -0.174 h⁻¹
CTX-1; 10 mg/kg once a day, D1 to end of 14 days
  inhibition of pre-dose plasma CTX-1 vs baseline: 40%
CTX-1; D0, three doses tested
  time of CTX-1 inhibition peak after administration: 8 h
CTX-1; once a day oral, D1 to end of 14 days
  pre-dose plasma CTX-1 during repeated administration: dose-dependent inhibition
CTX-1; single dose 10mg/kg and 100 mg/kg
  CTX-1 plasma concentration 24 hours after administration: did not go back to pre-dose concentration
CTX-1; single oral administration (D0) at 1 mg, 10 mg and 100 mg
  effect on plasma CTX-1: dose-dependent effect
[2]; CBCT-images
  depth of the alveolar bone defect: Only favorable trends
[2]; CBCT-scan and X-ray radiography
  width of the alveolar bone defect: significantly reduced
[2]; CBCT-scan images
  height of the alveolar crest: Significant improvements
[2]; X-ray images
  depth of the alveolar bone loss: significant improvements
[2]; X-ray radiography
  height of the alveolar crest: only favorable trends
